Results: US6716829B2, “Aldosterone antagonist and cyclooxygenase-2 inhibitor combination therapy to prevent or treat inflammation-related cardiovascular disorders” (Pharmacia Corporation, priority 2000, dated 2004)
Where “and” joins values, the source holds several entries; their conditions need not be identical. Identical values can stand only once.

Legend:
interstitial collagen = assay: Assay C: image analysis of interstitial collagen (Picrosirius Red), collagen volume fraction; assay type: in vivo, Male Sprague-Dawley rats; conditions: for ICVF (%): interstitial collagen volume fraction, eplerenone dose 100 mg/kg/day
Description: The procedure of Assay B was expanded upon in a further study. […] Myocardial tissue from animals in each treatment group was examined after 7, 14, or 30 days of treatment. […] Lesions were preceded by the expression and progressive upregulation of proinflammatory molecules. […] Prior to surgery the animals were individually weighed and placed in one of the following groups: […] Potassium chloride supplementation was added to the saline solution in order to prevent the potential hypokalemia associated with aldosterone excess. […] Louis, Mo.) was inserted subcutaneously at the nape of the neck. Aldosterone was administered at a dose of 0.75 µg/hour. […] Animals were sacrificed from each group (n=8-13) after 7, 14, or 30 days of treatment. The equatorial regions of the heart were routinely processed into paraffin with an automated tissue processor (Hypercenter XP, Shandon/Lipshaw Inc., Pittsburgh, Pa.) and embedded into fresh paraffin apical side down (Shandon Embedding Center, Shandon/Lipshaw Inc.). Five and 10 µm sections were cut from each block of tissue using a Leica RM2035 rotary microtome (Leica Inc., Houston, Tex.) and mounted on Superfrost/Plus microscope slides (Fisher Scientific, Pittsburgh, Pa.). Ten […]m sections were stained with the collagen specific stain, Picrosirius Red F3BA (Saturated Picric Acid (Sigma Chemical, St. […] Waterbury, Conn.) (6). Mounted tissues were hydrated with water. […] Slides were coverslipped with #1 cover glass using Permount Histological Mounting Media (Fisher Scientific). Two slides mounted with 5 µm sections were cut for each animal. One slide was processed for H&E staining and one for Periodic Acid Schiff (PAS) staining. The H&E and PAS were used for pathological scoring of the hearts. Picrosirius Red F3BA stained slides were used to quantify interstitial collagen with a Videometric 150 Image Analysis System (Oncor Inc., Gaitherburg, Md.). […] Garden City, N.Y.) attached to a Nikon Optiphot microscope (Nikon Inc.). A Toshiba 3 CCD Color Video Camera (Model#[…] Corp. Japan) relayed the images in RGB format from the microscope to a 386 computer with a […] video board. The […] video board/[…] software application (Oncor Inc.) converted RGB images to HIS (Hue, Intensity, Saturation) format for display and analysis on a Sony Trinitron Color Video Monitor (Model#PVM-1342Q, Sony Corp, Tokyo, Japan) at a magnification of 305×. […] The […] application then measured only pixels which fell into thresholding limits. The system was calibrated with a micrometer scale (EM Sciences, FT. Washington, Pa. 19034), which allowed data to be expressed in mm^2 or […]m^2.

Collagen III = assay: Assay C: Collagen III mRNA by TaqMan RT-PCR; assay type: in vivo, Male Sprague-Dawley rats; conditions: for Collagen-III (AU): collagen type III mRNA relative to cyclophilin, eplerenone dose 100 mg/kg/day
Description: The procedure of Assay B was expanded upon in a further study. […] Myocardial tissue from animals in each treatment group was examined after 7, 14, or 30 days of treatment.
Potassium chloride supplementation was added to the saline solution in order to prevent the potential hypokalemia associated with aldosterone excess.
At the time of the surgery, an Alzet 2002 osmotic minipump (Alza Corp., Palo Alto, Calif.) containing either vehicle (9% ethanol/87% propylene glycol/4% dH2O) or 1.0 mg/mL d-aldosterone (Sigma Chemical, St. Louis, Mo.) was inserted subcutaneously at the nape of the neck. Aldosterone was administered at a dose of 0.75 µg/hour. […] Animals were sacrificed from each group (n=8-13) after 7, 14, or 30 days of treatment.
The fluorogenic 5′-nuclease assay (TaqMan PCR) using Applied Biosystems' 7700 Sequence Detection System (Applied Biosystems, Foster City, Calif.) allowed for real time detection/quantitation of a specific gene by monitoring the increase in fluorescence of a gene-specific, dye-labeled oligonucleotide probe. Probes for target and reference genes were labeled at the 5′-end with a 6-carboxyfluorescein (6FAM) reporter dye and at the 3′-end with a 6-carboxy-N,N,N′,N′-tetramethylrhodamine (TAMRA) quencher dye. When the probe was annealed to the target gene, fluorescence of 6FAM was prevented by the close proximity of TAMRA. The exonuclease activity of Taq polymerase released the dyes from the oligonucleotide probe by displacing the probe from the target sequence resulting in fluorescence excitation in direct proportion to the amount of target message present. Data analysis was performed using the Sequence Detection System software from Applied Biosystems.
Primers and probes were designed using Oligo Primer Analysis Software, Version 5.0 (National Biosciences Inc. (NBI)-Wojciech Rychlik, Cascade, Colo.). Primers were synthesized by Life Technologies (Grand Island, N.Y.) and probes were synthesized by Applied Biosystems. Primer/probe sets were designed from known sequences of rat genes to be analyzed. All target gene values were normalized to a reference gene, constitutively expressed cyclophilin. Primer/probe sets sequences can be found in Table 8
RNA was extracted from frozen (−70° C.) left ventricle (LV) tissue (approximately 10-20 mg) using 1.5 mL RNA-STAT 60 according to manufacturer's instructions (Leedo Medical Laboratories, Inc., Houston, Tex.). Briefly, tissues were homogenized using a tissue homogenizer equipped with a 5 mm probe (Ultra-Turrax T8 Homogenizer, IKA Works, Inc. Wilmington, N.C.). Following homogenization, an equal volume of molecular grade chloroform (Sigma Chemical Co., St. Louis, Mo.) was incubated with periodic mixing for 10 min at room temperature. Samples were centrifuged at 12,000 g for 10 min and RNA was precipitated from the top layer by adding an equal volume of molecular grade isopropanol (Sigma Chemical Co.) followed by an overnight incubation at −80° C. RNA was pelleted by centrifugation at 12,000 g, washed with 75% ethanol, and solubilized in nuclease-free water (Promega, Madison, Wis.).
Double-stranded cDNA was synthesized by adding 400 ng RNA (4 uL) to a final volume of 20 uL containing 15% nuclease-free water (Promega, Madison, Wis.), 1×RT Buffer (Life Technologies, Grand Island, N.Y.), 10 mM DTT (Life Technologies), 0.5 mM each of dATP, dTTP, dGTP, dCTP (PE Biosystems, Foster City, Calif.), 2.5 μM Oligo d(T)15 (Oligo Therapeutics, Inc., Wilsonville, Oreg.), 40 units RNAsin (Promega), and 200 units SuperScript II Reverse Transcriptase (Life Technologies). The reactions were performed in thin-walled reaction tubes with caps (Applied Biosystems) to ensure accurate reaction temperatures.

[1] = group mean, data used for Table 15 (14 days of treatment)
[2] = group mean, data used for Table 16 (30 days of treatment)
[3] = individual rats, data used for Table 15 (14 days of treatment), incl. rat marked * excluded from statistics, listed as Aldosterone + salt
[4] = individual rats, data used for Table 16 (30 days of treatment), incl. rat marked * excluded from statistics, listed as Aldosterone + salt
[5] = mean ± SEM after 7 days of treatment
[6] = mean ± SEM after 14 days of treatment
[7] = mean ± SEM after 30 days of treatment
[8] = individual rats, data used for Table 15 (14 days of treatment), incl. rat marked * excluded from statistics, listed as Eplerenone + aldosterone + salt
[9] = individual rats, data used for Table 16 (30 days of treatment), incl. rat marked * excluded from statistics, listed as Eplerenone + aldosterone + salt

SMILES | Collagen Volume Fraction (%) (interstitial collagen; [1]) | Collagen Volume Fraction (%) (interstitial collagen; [2]) | Collagen Volume Fraction (%) (interstitial collagen; [3]) | Collagen Volume Fraction (%) (interstitial collagen; [4]) | ICVF (%) (interstitial collagen; [5]) | ICVF (%) (interstitial collagen; [6]) | ICVF (%) (interstitial collagen; [7]) | Collagen-III (AU) (Collagen III; [5]) | Collagen-III (AU) (Collagen III; [6]) | Collagen-III (AU) (Collagen III; [7]) | Collagen-III mRNA (AU) (Collagen III; [1]) | Collagen-III mRNA (AU) (Collagen III; [2]) | Collagen-III mRNA (AU) (Collagen III; [3]) | Collagen-III mRNA (AU) (Collagen III; [4]) | Collagen Volume Fraction (%) (interstitial collagen; [8]) | Collagen Volume Fraction (%) (interstitial collagen; [9]) | Collagen-III mRNA (AU) (Collagen III; [8]) | Collagen-III mRNA (AU) (Collagen III; [9])
C[C@]12CCC(=O)C=C1CC[C@@H]1[C@@H]2[C@@H](O)C[C@]2(C=O)[C@@H](C(=O)CO)CC[C@@H]12 [Aldosterone] | 5.1% | 7.9% | 4.4% and 5.4% and 3.2% (2×) and 5.9% (2×) and 4.6% (2×) and 3.9% and 4.8% and 3.4% and 6.4% and 9.0% | 6.6% and 8.8% and 7.2% (2×) and 7.1% and 9.3% and 6.8% and 4.0% and 14.5% | 5.6 ± 0.6% | 5.1 ±0.5% | 7.9 ± 1.0% | 1.42 ± 0.12 AU | 1.08 ± 0.14 AU | 1.39 ± 0.20 AU | 1.08 AU | 1.39 AU | 0.76 AU and 1.80 AU and 0.44 AU and 1.39 AU and 1.17 AU and 1.24 AU and 1.06 AU and 1.31 AU and 0.59 AU and 1.22 AU | 0.75 AU and 0.58 AU and 1.99 AU and 0.72 AU and 2.04 AU and 1.43 AU and 1.82 AU and 1.89 AU and 1.28 AU | – | – | – | –
COC(=O)[C@@H]1CC2=CC(=O)CC[C@]2(C)[C@@]23O[C@@H]2C[C@@]2(C)[C@@H](CC[C@@]24CCC(=O)O4)[C@H]13 [Eplerenone] | 4.5% | 6.2% | – | – | 5.4 ± 0.6% | 4.5 ± 0.3% | 6.2 ± 0.5% | 1.09± 0.21 AU | 1.61 ± 0.26 AU | 1.53 ± 0.23 AU | 1.61 AU | 1.53 AU | – | – | 4.1% and 6.2% and 3.9% and 3.7% (2×) and 4.2% and 3.5% and 3.3% and 5.2% and 5.6% and 6.0% | 3.4% and 5.0% and 6.5% and 7.9% and 7.1% and 6.3% and 6.1% and 5.4% and 7.8% and 4.4% | 0.60 AU (2×) and 1.19 AU and 1.16 AU and 1.24 AU and 1.70 AU and 1.81 AU and 1.61 AU and 2.21 AU and 1.80 AU and 3.77 AU | 0.95 AU and 0.72 AU and 1.37 AU and 0.89 AU and 1.26 AU and 1.87 AU and 1.66 AU and 2.89 AU and 2.16 AU and 0.73 AU
